Test [1] is described as follows: Determination of DPPH free radical scavenging ability. In kind it is biochemical. The note with it: absolute ethanol, 30° C., 30 min, 517 nm. The protocol:
(§1) Each of the composition of Examples 9-17, as well as single-component quercetagetin, 6-hydroxykaempferol, patuletin was taken, and the detection of DPPH and hydroxyl radical scavenging ability was performed. The specific test methods are as follows.
[…], 6-hydroxykaempferol, patuletin, and compositions 9-17 were used to prepare sample solutions with concentrations of 1, 2, 3, 4, 5, and 6 μg/ml in absolute ethanol. Then, DPPH was prepared into a 2×10^−4 mol/L solution with absolute ethanol, and 2 mL of blank and sample solution were accurately absorbed and mixed with 2 mL of DPPH solution, respectively, the resultants were placed in a water bath at 30° C. in the dark for 30 min, and the absorbance A (blank) and Asample (sample) were measured at the wavelength of 517 nm.

Test [2] is described as follows: Determination of hydroxyl radical scavenging ability (salicylic acid method). In kind it is biochemical. The note with it: 37° C., 15 min, 510 nm. The protocol:
as §1
Quercetin, 6-hydroxykaempferol, patuletin, and compositions 9-17 were used to prepare sample solutions with concentrations of 100, 150, 200, 250, 300 μg/ml in absolute ethanol. 9 mmol/L salicylic acid-ethanol solution, 9 mmol/L FeSO4 solution and 8.8 mmol/L H2O2 solution were prepared. Then, different samples were added according to the order in the following table, and placed in a water bath at 37° C. for 15 min, and the absorbance at 510 nm was measured.

The nature of test [3]: Antioxidant effect in fish oil powder (peroxide value). As to conditions: 40° C., 28 days; for Peroxide value of fish oil powder with an addition amount of 10 ppm: 10 ppm (based on active ingredients); for Peroxide value of fish oil powder with an addition amount of 100 ppm: 100 ppm (based on active ingredients). The procedure: After the antioxidant and fish oil powder were evenly mixed, the resultants were placed in an incubator at 40° C., and samples were taken in 28 days to measure the peroxide value.

A short description of test [4]: Antioxidant effect in lipids: peroxide value of butter. The note with it: 150 ppm. The procedure:
5 parts of chicken oil and butter were taken respectively, each of which is 100 grams. Each 3 groups of chicken oil experimental groups and butter experimental groups were set up, and the composition of Example 6 was added according to the addition amount of 4, 6 and 8 ppm respectively; each 1 group of chicken oil control group and butter control group were set up, and ethoxyquin was added in an addition amount of 150 ppm; each 1 group of chicken oil blank group and butter blank group were set up, without adding any additives. The additives in each group were mixed evenly with the lipid, placed in a constant temperature incubator at 40° C., and samples were taken at 0, 3, 7, 14, 21 and 28 days to determine their peroxide value.

`O=c1c(O)c(-c2ccc(O)cc2)oc2cc(O)c(O)c(O)c12` [6-hydroxykaempferol]: the “DPPH (IC50 μg/ml), half clearance” value in test [1] amounted to 23.62 µg/mL. Moreover, in test [2], the “Hydroxyl radical scavenging ability (IC50 μg/ml), half clearance” value stood at 500 µg/mL. Further, in test [3], the Peroxide value of fish oil powder with an addition amount of 10 ppm is 142 mmol/kg and the Peroxide value of fish oil powder with an addition amount of 100 ppm stood at 121 mmol/kg.
For `CCOc1ccc2c(c1)C(C)=CC(C)(C)N2` [Ethoxyquin, ethoxyquin], the peroxide value of butter is 1.41 ± 0.15 mmol/kg in test [4] (Day 0, 40° C.); 1.44 ± 0.142 mmol/kg in test [4] (Day 3, 40° C.); 1.62 ± 0.104 mmol/kg in test [4] (Day 7, 40° C.); 1.66 ± 0.075 mmol/kg in test [4] (Day 14, 40° C.); 1.82 ± 0.1 mmol/kg in test [4] (Day 21, 40° C.); 2.02 ± 0.197 mmol/kg in test [4] (Day 28, 40° C.).
As for `COc1c(O)cc2oc(-c3ccc(O)c(O)c3)c(O)c(=O)c2c1O` [Patuletin, patuletin], the “DPPH (IC50 μg/ml), half clearance” value in test [1] amounted to 31.98 µg/mL. The “Hydroxyl radical scavenging ability (IC50 μg/ml), half clearance” value in test [2] came to 595 µg/mL. Moreover, in test [3], the Peroxide value of fish oil powder with an addition amount of 10 ppm came to 120 mmol/kg and the Peroxide value of fish oil powder with an addition amount of 100 ppm worked out at 109 mmol/kg.
The matching figures for `O=c1c(O)c(-c2ccc(O)c(O)c2)oc2cc(O)c(O)c(O)c12` [Quercetagetin, 3,3,4,5,6,7-hexahydroxyflavone]: 14.82 µg/mL, 412 µg/mL, 76.5 mmol/kg and 57.3 mmol/kg.

Source of the values: patent US12514266B2, “Composition containing quercetagetin” (Chenguang Biotech Group Co., Ltd., priority 2020, dated 2026).
